{"source": "patent US8828456B2", "about": "“Method of external skin application of composition containing red pine root extract” (Amorepacific Corporation, priority 2009, dated 2014)", "assay": "Free radical removal activity (DPPH method)", "format": "biochemical", "experimental": "Specifically, each of the extracts obtained in Example 1 and Comparative Example 1 was diluted in ethanol to varying concentrations (0, 50, 100, 200, 300 and 400 μg/mL), and 10 μl of each dilution was added to each well of a 96-well plate. A solution of 5 mM DPPH in ethanol was added to each well to a total volume of 200 μl. The resulting solution was incubated at 37° C. for 30 minutes, and then measured at 520 nm using an ELISA reader (DI Biotech, Korea). Based on the measured absorbance, free radical removal activity was calculated according to the following Equation 1. As a positive control, vitamin C known to have excellent antioxidant activity was used. Radical removal activity (%)=absorbance of control-absorbance of sample/absorbance of control×100 Equation 1", "data": [{"molecule": "O=C1O[C@H]([C@@H](O)CO)C(O)=C1O", "note": "[Vitamin C, vitamin C]", "values": [{"measurement": "Radical Removal Activity (%)", "setting": "50 μg/mL", "result": 30, "unit": "%"}, {"measurement": "Radical Removal Activity (%)", "setting": "100 μg/mL", "result": 90, "unit": "%"}, {"measurement": "Radical Removal Activity (%)", "setting": "200 μg/mL", "result": 91, "unit": "%"}, {"measurement": "Radical Removal Activity (%)", "setting": "300 μg/mL", "result": 90, "unit": "%"}, {"measurement": "Radical Removal Activity (%)", "setting": "400 μg/mL", "result": 90, "unit": "%"}]}]}
